US20250186430A1, “THERAPY OF INTEROCEPTION DISORDERS WITH CGRP RECEPTOR ANTAGONISTS” (priority 2022, published 2025)

Columns and labels:
[1] = background art; cited from earlier work
[2] = background art; cited from earlier work; remark: listed apart in the source
[3] = test system: rats exposed to the chemotherapeutic drug cisplatin; experiment: cisplatin model of malaise due to antineoplastic chemotherapy; type: in vivo; conditions: cisplatin 6 mg/kg intraperitoneal, gepant 10 mg/kg orally, daily, starting two days before cisplatin
Protocol: FIG. 1. Effect of rimegepant, ubrogepant, atogepant and zavegepant (10 mg/kg orally, daily, starting two days before cisplatin) on food consumption/anorexia, weight loss and weight body recovery in rats exposed to cisplatin (6 mg/kg, intraperitoneal), as an experimental model of malaise due to antineoplastic chemotherapy. * p<0.05, ** p<0.01, *** p<0.001, vs control, ANOVA and Tukeys post hoc test.

[4] = test system: mice with chronic arthritis due to injection of Freund's adjuvant; experiment: chronic arthritis (Freund's adjuvant) model of malaise due to chronic pain; type: in vivo; conditions: gepant 10 mg/kg orally, daily, starting two days before arthritis induction
Protocol: FIG. 2. Effects of rimegepant, ubrogepant, atogepant and zavegepant (10 mg/kg orally, daily, starting two days before arthritis induction) on food consumption/anorexia, weight loss and spontaneous motility in mice with chronic arthritis due to injection of Freund's adjuvant as an experimental model of malaise due to chronic pain. * p<0.05, ** p<0.01, *** p<0.001 vs Arthritis, ANOVA and Tukeys post hoc test.

[5] = test system: rats subjected to laparotomy and gut manipulation; experiment: laparotomy and gut manipulation model of malaise due to abdominal surgery; type: in vivo; conditions: gepant 10 mg/kg orally, daily, starting two days before surgery
Protocol: FIG. 3. Effects of rimegepant, ubrogepant, atogepant and zavegepant (10 mg/kg orally, daily, starting two days before surgery) on body weight loss and food consumption/anorexia in rats subjected to laparotomy and gut manipulation as an experimental model of malaise due to abdominal surgery. * p<0.05, ** p<0.01, *** p<0.001 vs Laparotomy, ANOVA and Tukeys post hoc test.

[6] = test system: rats treated with carbon tetrachloride; experiment: carbon tetrachloride model of malaise due to hepatopathy; type: in vivo; conditions: gepant 10 mg/kg orally, daily, starting two days before carbon tetrachloride
Protocol: Further, we have tested the gepants in a model of hepatopathy, a condition that typically prompts asthenia, weight loss and anhedonia.
FIG. 4. Effects of rimegepant, ubrogepant, atogepant and zavegepant (10 mg/kg orally, daily, starting two days before carbon tetrachloride) on body weight loss and sweet water consumption in rats treated with carbon tetrachloride as a model of malaise due to hepatitis/hepatopathy. * p<0.05, ** p<0.01, *** p<0.001 vs Hepatitis, ANOVA and Tukeys post hoc test.

[7] = test system: rats injected with cerulein; experiment: cerulein model of pancreatitis; type: in vivo; conditions: gepant 10 mg/kg orally, daily, starting two days before cerulein treatment
Protocol: FIG. 5. Effects of rimegepant, ubrogepant, atogepant and zavegepant (10 mg/kg orally, daily, starting two days before cerulein treatment) on body weight loss and spontaneous motility in rats injected with cerulein as an experimental model of pancreatitis. * p<0.05, ** p<0.01, *** p<0.001 vs Pancreatitis, ANOVA and Tukeys post hoc test.

[8] = test system: rats treated with a diet containing 0.75% adenine; experiment: 0.75% adenine diet model of renal insufficiency; type: in vivo; conditions: gepant 10 mg/kg orally, daily, starting two days before nephrotoxic diet
Protocol: Further, we have tested the gepants in rats treated with a diet containing 0.75% adenine as an experimental model of renal insufficiency.
FIG. 6. Effects of rimegepant, ubrogepant, atogepant and zavegepant (10 mg/kg orally, daily, starting two days before exposure to the nephrotoxic diet) on body weight loss and food consumption/anorexia in rats exposed to a diet containing 0.75% adenine as an experimental model of renal insufficiency. *p<0.05, ** p<0.01, *** p<0.001 vs Kidney Failure, ANOVA and Tukeys post hoc test.

[9] = test system: mice sensitized and re-challenged with ovalbumin; experiment: ovalbumin model of asthma or chronic obstructive pulmonary disease; type: in vivo; conditions: gepant 10 mg/kg orally, daily, starting two days before antigen rechallenge
Protocol: FIG. 7. Effects of rimegepant, ubrogepant, atogepant and zavegepant (10 mg/kg orally, daily, starting two days before antigen rechallenge) on spontaneous motility, body weight loss and sweet water ingestion of mice sensitized and re-challenged with ovalbumin as a model of asthma or chronic obstructive pulmonary disease. * p<0.05, ** p<0.01, *** p<0.001 vs […], ANOVA and Tukeys post hoc test.

[10] = test system: rats injected with Yoshida hepatoma; experiment: Yoshida hepatoma model of malaise due to tumor cachexia; type: in vivo; conditions: gepant 10 mg/kg orally, daily, starting two days before tumor injection
Protocol: As additional models of malaise due to interoceptive information, we have adopted those of tumor cachexia and sepsis.
FIG. 8. Effects of rimegepant, ubrogepant, atogepant and zavegepant (10 mg/kg orally, daily, starting two days before tumor injection) on body weight loss, muscle mass and food consumption/anorexia in rats injected with Yoshida hepatoma, as classic model of malaise due to tumor cachexia. * p<0.05, ** p<0.01, *** p<0.001. **** p<0.0001 vs Hepatoma, ANOVA and Tukeys post hoc test.

[11] = test system: rats injected intraperitoneally with lipopolysaccharides from Salmonella Typhimurium; experiment: lipopolysaccharide model of malaise due to sepsis/systemic immune activation; type: in vivo; conditions: gepant 10 mg/kg orally, daily, starting two days before lipopolysaccharides injection
Protocol: FIG. 9. Effects of rimegepant, ubrogepant, atogepant and zavegepant (10 mg/kg orally, daily, starting two days before lipopolysaccharides injection) on body weight loss and food consumption/anorexia in rats injected intraperitoneally with lipopolysaccharides from Salmonella Typhimurium as a classic model of malaise due to sepsis/systemic immune activation. * p<0.05, ** p<0.01, vs Sepsis, ANOVA and Tukeys post hoc test.

| SMILES | hepatotoxicity [1] | body weight loss [3] | food aversion/anorexia [3] | weight body recovery [3] | food aversion/anorexia [4] | spontaneous motility [4] | weight loss [4] | food aversion/anorexia [5] | weight loss [5] | sweet water consumption (index of motivational behavior and reduced anhedonia) [6] | weight loss [6] | reduction in spontaneous motility [7] | weight loss [7] | decrease of food consumption/anorexia [8] | weight loss [8] | decrease of sweet water consumption [9] | spontaneous motility (parameter of malaise) [9] | weight loss [9] | loss of muscle mass [10] | reduction of food consumption/anorexia [10] | further results |
| --- | --- | --- | --- | --- | --- | --- | --- | --- | --- | --- | --- | --- | --- | --- | --- | --- | --- | --- | --- | --- | --- |
| NCCCC[C@H](NC(=O)[C@@H](Cc1cc(Br)c(O)c(Br)c1)NC(=O)N1CCC(N2Cc3ccccc3NC2=O)CC1)C(=O)N1CCN(c2ccncc2)CC1 [olcegepant] | occurrence of hepatotoxicity | – | – | – | – | – | – | – | – | – | – | – | – | – | – | – | – | – | – | – | efficacy as anti-migraine drugs [2]: proved efficacious |
| N[C@@H]1c2cccnc2[C@H](OC(=O)N2CCC(n3c(=O)[nH]c4ncccc43)CC2)CC[C@H]1c1cccc(F)c1F [rimegepant] | non-hepatotoxic | reduces | reduces | accelerates | reduces | increases | reduces | in part | completely prevents | triggers an increase | reduces | prevents | prevents | reduces | reduces | reduces | reduces | reduces | counteracting | counteracting | weight loss [10]: reducing; decrease of food consumption/anorexia [11]: reduces; weight loss [11]: reduces |
| Cc1cc(C[C@@H](NC(=O)N2CCC(c3cc4ccccc4[nH]c3=O)CC2)C(=O)N2CCN(C3CCN(C)CC3)CC2)cc2cn[nH]c12 [zavegepant] | non-hepatotoxic | reduces | reduces | accelerates | reduces | increases | reduces | in part | completely prevents | triggers an increase | reduces | prevents | prevents | reduces | reduces | reduces | reduces | reduces | counteracting | counteracting | weight loss [10]: reducing; decrease of food consumption/anorexia [11]: reduces; weight loss [11]: reduces |
| C[C@@H]1[C@H](c2c(F)ccc(F)c2F)C[C@H](NC(=O)c2cnc3c(c2)C[C@@]2(C3)C(=O)Nc3ncccc32)C(=O)N1CC(F)(F)F [atogepant] | non-hepatotoxic | reduces | reduces | accelerates | reduces | increases | reduces | in part | completely prevents | triggers an increase | reduces | prevents | prevents | reduces | reduces | reduces | reduces | reduces | counteracting | counteracting | weight loss [10]: reducing; decrease of food consumption/anorexia [11]: reduces; weight loss [11]: reduces |
| C[C@@H]1[C@H](c2ccccc2)C[C@H](NC(=O)c2cnc3c(c2)C[C@@]2(C3)C(=O)Nc3ncccc32)C(=O)N1CC(F)(F)F [ubrogepant] | non-hepatotoxic | reduces | reduces | accelerates | reduces | increases | reduces | in part | completely prevents | triggers an increase | reduces | prevents | prevents | reduces | reduces | reduces | reduces | reduces | counteracting | counteracting | weight loss [10]: reducing; decrease of food consumption/anorexia [11]: reduces; weight loss [11]: reduces |
| O=C(N[C@@H]1CC[C@@H](c2cccc(F)c2F)CN(CC(F)(F)F)C1=O)N1CCC(n2c(=O)[nH]c3ncccc32)CC1 [telcagepant] | occurrence of hepatotoxicity | – | – | – | – | – | – | – | – | – | – | – | – | – | – | – | – | – | – | – | efficacy as anti-migraine drugs [2]: proved efficacious |
